Results as given in US10363229B2, “Methods and compositions for the treatment of cancer” (priority 2009, dated 2019).

How the values were obtained:
melanoma cells [1] = assay: Cell invasion assay (Transwell, ECM gel); type: cell-based, mouse; settings: 2% methyl sulfone
Procedure: Invasion assays were performed in Transwell chambers (Corning). The 8 μm pore membranes of the upper chambers were coated with ECM gel from Engelbreth-Holm-Swarm murine sarcoma (Sigma), diluted 1:6 with RPMI medium +/−2% methyl sulfone, and placed in a well with RPMI medium +/−2% methyl sulfone. Cells (1×10^5 cells/200 μl) were seeded into appropriate upper chambers in RMPI medium+/−2% methyl sulfone. After 20 hours of incubation at 37° C., cells were removed from top surface of the chamber and filters were fixed with 5% glutaraldeyde. Cells on the lower surface of the filter were stained with a 0.5% solution of toluidine blue. Membranes of inserts were removed with a razor, mounted between a glass slide and a coverslip, and held in place with scotch tape. Cells were photographed and counted at the Center for Cell Analysis and Modeling, University of Connecticut Health Center, Farmington, Conn., with an Axioplan CCD Microscope equipped with a 40×1.3 NA FL objective lens and high speed digital cooled CCD camera via Metamorph image acquisition and analysis software (Universal Imaging Corp., Downington, Pa.). All assays were performed in triplicate.
A second classic characteristic of metastatic cells is their ability to migrate through an extracellular matrix. We determined whether methyl sulfone altered this ability in melanoma cells. […]

melanoma cells [2] = assay: Cell wounding / wound healing; type: cell-based, mouse; settings: 2% methyl sulfone
Procedure: Cells were cultured to approximately 90% confluence in 35 mm tissue culture plates. Methyl sulfone (2%) was added to half the plates and 48 hours later cells were wounded with a sterile plastic 1000 μl pipette tip. Cells were washed two times with medium to remove cell debris and incubated at 37° C. over night in RMPI medium +/−2% methyl sulfone. After 72 hours, wound edges were photographed and recorded with a Nikon TE300 inverted microscope (Nikon) equipped with a 10×0.25 NA Plan Achromat objective lens. Time-series (5 min long) of phase contrast images were acquired at a video rate (1 frame/3s) with a Watec-902B CCD video camera (Watec Corp., Japan) via stream acquisition option of Metamorph image acquisition and analysis software (Universal Imaging Corp., Downington, Pa.). During the recordings, cells were kept at 37° C. and 10 mM Hepes. Time series and photographs of cells +/−2% methyl sulfone were obtained every 24 hours for up to 120 hrs.
We tested whether melanoma cells treated with 2% methyl sulfone would function properly in the process of wound healing. As described in herein, control melanoma cells and cells treated with 2% methyl sulfone were grown to confluence. Scraping a layer of confluent cells with a plastic pipette tip formed wounds. Live cell video microscopy was used to monitor migration of cells into the wound.

methyl sulfone
cells that migrated through the extracellular matrix (melanoma cells [1]): none and unable to pass through the membrane
behaviour when the wound was covered (melanoma cells [2]): stopped migrating and once again became contact inhibited
rate of migration into the wound area (melanoma cells [2]): slower rate than control cells
